Assay results published in patent US20200352163A1, “ANTIMICROBIAL MIXTURE CONTAINING 4-(3-ETHOXY-4-HYDROXYPHENYL)BUTAN-2-ONE AND AN AROMATIC ALCOHOL, AND COSMETIC COMPOSITION CONTAINING SAME” (L'OREAL, priority 2017, published 2020).
Values belong to the compound of their own block, whether it stands above or below them.

Columns and labels:
Experiment in all cases: MIC / FIC synergy test in 96-well microplate, optical density at 620 nm
Format in all cases: cell-based
Settings in all cases: for microbial growth percentage: weight %
[1] = test system: Aspergillus niger ATCC 6275
Description: (§1) FIC Index=(MIC of A with B/MIC of A)+(MIC of B with A/MIC of B)
(§2) with: • MIC of A with B: minimum concentration of product A in the combination A+B which makes it possible to obtain an inhibitory effect; • MIC of B with A: minimum concentration of product B in the combination A+B which makes it possible to obtain an inhibitory effect; • MIC of A: minimum inhibitory concentration of product A alone; • MIC of B: minimum inhibitory concentration of product B alone.
(§3) As regards the combinations tested, MIC of A with B and MIC of B with A are the respective concentrations of A and of B in the combinations which make it possible to obtain a microbial growth percentage of less than or equal to 20%.
(§4) When the FIC index value is less than or equal to 1, it is considered that the combination of test compounds has a synergistic effect.
The microbial strain Aspergillus niger ATCC 6275, and a double-concentration Sabouraud broth liquid culture medium supplemented with polyoxyethylenated (20 OE) sorbitan monopalmitate (Tween 40 from Croda) and Phytagel© BioReagent were used (i.e. a mixture of 5 g of Phytagel+0.6 g Tween 40+60 g of Sabouraud broth).
(§5) A 96-well microplate and an incubation temprature of 32.5° C. are used.
(§6) The incubation time of the microplate is: • from 18 to 24 h under aerobic conditions for Candida albicans ATCC 10231, Pseudomonas aeruginosa ATCC 9027 and Staphylococcus aureus ATCC 6538; • from 24 to 30 h under aerobic conditions for microbial Aspergillus niger ATCC 6275; • from 24 to 48 h under aerobic conditions for Enterococcus faecalis ATCC 33186.
(§7) A 10% (weight/volume) stock solution was prepared by mixing 1 g of compound in 9 ml of aqueous 1‰ agar solution. Successive dilutions were made with the 1‰ agar solution.
(§8) 50 μl of each of the daughter solutions obtained containing compound A or B are added to the microplate wells. 100 μl of Sabouraud liquid nutrient broth inoculated at double concentration with the Aspergillus niger strain and 50 μl of aqueous 1‰ agar solution are also added thereto.
(§9) 50 μl of each of the daughter solutions obtained containing compound A and 50 μl of each of the daughter solutions obtained containing compound B are added to the microplate wells. 100 μl of Sabouraud liquid nutrient broth inoculated at double concentration with the strain Aspergillus niger are also added thereto.
(§10) A positive microbial growth control was also prepared. The positive microbial growth control corresponds to a mixture of 100 μl of aqueous 1‰ agar solution with 100 μl of Sabouraud liquid nutrient broth inoculated at double concentration with the strain Aspergillus niger in the absence of compounds A and B.
(§11) An absorbance control was performed in parallel on compounds A and B alone. This control corresponds to 100 μl of double concentration sterile Sabouraud liquid nutrient broth+100 μl of double concentration compound A or B.
(§12) In the three cases (absorbance control, growth control and test), the final volume present in each of the microplate wells is 200 μl.
In the two cases (test and control), the inoculum represents the concentration of the Aspergillus niger strain present in the final volume of the wells (200 μl) and is between 2 and 6×10^5 cfu/ml of Aspergillus niger.

[2] = test system: Enterococcus faecalis ATCC 33186
Description: as §1, §2, §3, §4
The microbial strain Enterococcus faecalis ATCC 33186 and a double-concentration BHI (Brain Heart Infusion) broth liquid culture medium were used.
as §5, §6, §7, §8, §9, §10, §11, §12
(§13) The test as described above (tests, absorbance control and growth control) was performed again to test the combination A+B on the following strains Enterococcus faecalis, Staphylococcus aureus, Pseudomonas aeruginosa, Candida albicans.

[3] = test system: Staphylococcus aureus ATCC 6538
Description: as §1, §2, §3, §4
The microbial strain Staphylococcus aureus ATCC 6538 and a double-concentration nutrient broth liquid culture medium were used.
as §5, §6, §7, §8, §9, §10, §11, §12, §13

[4] = test system: Pseudomonas aeruginosa ATCC 9027
Description: as §1, §2, §3, §4
The microbial strain Pseudomonas aeruginosa ATCC 9027 and a double-concentration nutrient broth liquid culture medium were used.
as §5, §6, §7, §8, §9, §10, §11, §12, §13

[5] = test system: Candida albicans ATCC 10231
Description: as §1, §2, §3, §4
The microbial strain Candida albicans ATCC 10231 and a double-concentration Sabouraud broth liquid culture medium were used.
as §5, §6, §7, §8, §9, §10, §11, §12, §13

[6] = Example 1, first concentration giving growth <= 20%
[7] = Example 5, first concentration giving growth <= 20%
[8] = first concentration giving growth <= 20%

MIC B2 ([5]; B2 alone, first concentration giving growth <= 20%): 0.25%
SMILES: OCCc1ccccc1 [B2, phenylethyl alcohol]
microbial growth percentage ([5]; 0.125 B2 alone): 41%
microbial growth percentage ([5]; 0.25 B2 alone): 7%

% MIC of B3 alone [1, 8]: 0.5%
% MIC of B3 alone [2, 8]: 1%
SMILES: OCc1ccccc1 [B3, benzyl alcohol]
microbial growth percentage ([1]; 0.0125 B3 alone): 94%
microbial growth percentage ([1]; 0.25 B3 alone): 31%
microbial growth percentage ([1]; 0.5 B3 alone): 1%
microbial growth percentage ([2]; 0.25 B3 alone): 77%
microbial growth percentage ([2]; 0.5 B3 alone): 30%
microbial growth percentage ([2]; 1 B3 alone): 3%

The next lines start with the compound.

SMILES: CCOc1cc(CCC(C)=O)ccc1O [A, 4-(3-ethoxy-4-hydroxyphenyl)butan-2-one]
microbial growth percentage ([1]; 0.0625 A alone, Example 1): 85%
microbial growth percentage ([1]; 0.0625 A alone, Example 5): 86%
microbial growth percentage ([1]; 0.125 A alone, Example 1): 47%
microbial growth percentage ([1]; 0.125 A alone, Example 5): 41%
microbial growth percentage ([1]; 0.25 A alone, Example 1): 7%
microbial growth percentage ([1]; 0.25 A alone, Example 5): 6%
% MIC of A alone [1, 6]: 0.25%
% MIC of A alone [1, 7]: 0.25%
microbial growth percentage ([2]; 0.0625 A alone, Example 1): 82%
microbial growth percentage ([2]; 0.0625 A alone, Example 5): 78%
microbial growth percentage ([2]; 0.0625 A alone, Example 6): 42%
microbial growth percentage ([2]; 0.125 A alone, Example 1): 89%
microbial growth percentage ([2]; 0.125 A alone, Example 5): 86%
microbial growth percentage ([2]; 0.125 A alone, Example 6): 42%
microbial growth percentage ([2]; 0.25 A alone, Example 1): 89%
microbial growth percentage ([2]; 0.25 A alone, Example 5): 92%
microbial growth percentage ([2]; 0.25 A alone, Example 6): 33%
microbial growth percentage ([2]; 0.5 A alone, Example 1): 75%
microbial growth percentage ([2]; 0.5 A alone, Example 5): 72%
microbial growth percentage ([2]; 0.5 A alone, Example 6): 34%
microbial growth percentage ([2]; 1 A alone, Example 1): 13%
microbial growth percentage ([2]; 1 A alone, Example 5): 4%
microbial growth percentage ([2]; 1 A alone, Example 6): 24%
% MIC of A alone [2, 6]: 1%
% MIC of A alone [2, 7]: 1%
% MIC of A alone ([2]; Example 6): 1%
microbial growth percentage ([3]; 0.0625 A alone): 71%
microbial growth percentage ([3]; 0.125 A alone): 57%
microbial growth percentage ([3]; 0.25 A alone): 52%
microbial growth percentage ([3]; 0.5 A alone): 1%
% MIC of A alone [3, 8]: 0.5%
microbial growth percentage ([4]; 0.0625 A alone): 49%
microbial growth percentage ([4]; 0.125 A alone): 82%
microbial growth percentage ([4]; 0.25 A alone): 116%
microbial growth percentage ([4]; 0.5 A alone): 67%
microbial growth percentage ([4]; 1 A alone): −4%
% MIC of A alone [4, 8]: 1%
microbial growth percentage ([5]; 0.025 A alone, Example 1): 48%
microbial growth percentage ([5]; 0.025 A alone, Example 3): 85%
microbial growth percentage ([5]; 0.025 A alone, Example 6): 69%
microbial growth percentage ([5]; 0.05 A alone, Example 1): 29%
microbial growth percentage ([5]; 0.05 A alone, Example 3): 64%
microbial growth percentage ([5]; 0.05 A alone, Example 6): 63%
microbial growth percentage ([5]; 0.1 A alone, Example 1): 16%
microbial growth percentage ([5]; 0.1 A alone, Example 3): 25%
microbial growth percentage ([5]; 0.1 A alone, Example 6): 38%
microbial growth percentage ([5]; 0.2 A alone, Example 3): 3%
microbial growth percentage ([5]; 0.2 A alone, Example 6): 4%
% MIC A ([5]; A alone, Example 3, first concentration giving growth <= 20%): 0.2%
% MIC of A alone [5, 6]: 0.1%
% MIC of A alone ([5]; Example 6, first concentration giving growth <= 20%): 0.2%

SMILES: OCCOc1ccccc1 [B1, 2-phenoxyethanol]
microbial growth percentage ([1]; 0.0625 B1 alone): 95%
microbial growth percentage ([1]; 0.125 B1 alone): 89%
microbial growth percentage ([1]; 0.25 B1 alone): 8%
% MIC of B1 alone [1, 8]: 0.25%
microbial growth percentage ([2]; 0.0625 B1 alone): 87%
microbial growth percentage ([2]; 0.125 B1 alone): 86%
microbial growth percentage ([2]; 0.25 B1 alone): 84%
microbial growth percentage ([2]; 0.5 B1 alone): 80%
microbial growth percentage ([2]; 1 B1 alone): 6%
% MIC of B1 alone [2, 8]: 1%
microbial growth percentage ([3]; 0.0625 B1 alone): 66%
microbial growth percentage ([3]; 0.125 B1 alone): 73%
microbial growth percentage ([3]; 0.25 B1 alone): 58%
microbial growth percentage ([3]; 0.5 B1 alone): 1%
% MIC of B1 alone [3, 8]: 0.5%
microbial growth percentage ([4]; 0.0625 B1 alone): 45%
microbial growth percentage ([4]; 0.125 B1 alone): 39%
microbial growth percentage ([4]; 0.25 B1 alone): 39%
microbial growth percentage ([4]; 0.5 B1 alone): 0%
microbial growth percentage ([4]; 1 B1 alone): 0%
% MIC of B1 alone [4, 8]: 0.5%
microbial growth percentage ([5]; 0.0625 B1 alone): 44%
microbial growth percentage ([5]; 0.125 B1 alone): 22%
microbial growth percentage ([5]; 0.25 B1 alone): 2%
% MIC of B1 alone [5, 8]: 0.25%

SMILES: Cc1cc(O)ccc1C(C)C [B4, 4-isopropyl-3-methylphenol]
% MIC of B4 alone [2]: 0.1%
microbial growth percentage ([2]; 0.0125 B4 alone): 45%
microbial growth percentage ([2]; 0.025 B4 alone): 44%
microbial growth percentage ([2]; 0.05 B4 alone): 27%
microbial growth percentage ([2]; 0.1 B4 alone): 23%
microbial growth percentage ([5]; 0.0025 B4 alone): 87%
microbial growth percentage ([5]; 0.005 B4 alone): 82%
microbial growth percentage ([5]; 0.01 B4 alone): 73%
microbial growth percentage ([5]; 0.02 B4 alone): 35%
microbial growth percentage ([5]; 0.04 B4 alone): 1%
% MIC of B4 alone [5, 8]: 0.04%
